Measurements reported in paper PMC12655351, “Synthesis and Anticancer Activity Evaluation of New 5-((5-Nitrofuran-2-yl)allylidene)-2-thioxo-4-thiazolidinones” (Pharmaceuticals, 2025).
“And” between values parts separate entries of the source, which are not always exact repeats. Identical values can stand only once.

What was measured:
[1] = system: AGS; assay: MTT assay; type: cell-based; conditions: Homo sapiens, 24 h of treatment
Method: (§1) The NCI-60 screening protocol utilizes the sulforhodamine B (SRB) assay following 48 h of compound exposure. […] The MTT assay was performed on eleven cancer cell lines: human breast cancer (MDA-MB-231, MCF-7, HCC 1954), human gastric cancer (AGS), human colorectal adenocarcinoma (HT-29, DLD-1, HCT 116), human neuroblastoma (SH SY5Y), and human leukemia (JURKAT, RMPI 8866, K-562) cell lines. The study was conducted in triplicate at the following seven concentrations: 0.62, 1.25, 2.5, 5, 10, 20, and 40 μM.
(§2) The selected cell lines were seeded into 96-well plates and cultured in accordance with the previously described methodology. Then, the cells were treated with all tested compounds and DOX at concentrations of 0.625, 1.25, 2.5, 5.0, 10.0, 20.0, and 40.0 μM for 24 h. A solution of 3-(4,5-dimethyl-2-thiazolyl)-2,5-diphenyl-2H-tetrazolium bromide (Sigma-Aldrich, St. Louis, MO, USA) in phosphate-buffered saline without calcium and magnesium (Corning, Kennebunk, ME, USA) at a concentration of 5 mg/mL was used to carry out MTT assay. After incubation, 20 μL of the prepared MTT solution was added, and then the cells were incubated at 37 °C for two hours. Afterwards, the cells were lysed using 100 μL of lysing buffer (comprising 25 mM HCl, 2% acetic acid, 3% DMF, and 5% SDS, with a pH of 4.7). The absorbance was determined at a wavelength of 570 nm using an Absorbance 96 microplate reader (Byonoy GmbH, Hamburg, Germany).

[2] = system: DLD-1; assay: MTT assay; type: cell-based; conditions: Homo sapiens; DLD-1, 24 h of treatment
Method: as §1, §2

[3] = system: HCC-1954; assay: MTT assay; type: cell-based; conditions: Homo sapiens, HCC1954; HCC-1954, 24 h of treatment
Method: as §1, §2

[4] = system: HCT-116; assay: MTT assay; type: cell-based; conditions: Homo sapiens; HCT-116, 24 h of treatment
Method: as §1, §2

[5] = system: HT-29; assay: MTT assay; type: cell-based; conditions: Homo sapiens; HT-29, 24 h of treatment
Method: as §1, §2

[6] = system: Jurkat; assay: MTT assay; type: cell-based; conditions: Homo sapiens, 24 h of treatment
Method: as §1, §2

[7] = system: K562; assay: MTT assay; type: cell-based; conditions: Homo sapiens; K562, 24 h of treatment
Method: as §1, §2

[8] = system: MCF-7; assay: MTT assay; type: cell-based; conditions: Homo sapiens, MCF7; MCF-7, 24 h of treatment
Method: as §1, §2

[9] = system: MDA-MB-231; assay: MTT assay; type: cell-based; conditions: Homo sapiens; MDA-MB-231, 24 h of treatment
Method: as §1, §2

[10] = system: RPMI 8866; assay: MTT assay; type: cell-based; conditions: Homo sapiens; RPMI 8866, 24 h of treatment
Method: as §1, §2

[11] = system: SH SY5Y; assay: MTT assay; type: cell-based; conditions: Homo sapiens, 24 h of treatment
Method: as §1, §2

[12] = system: RPMI-8226; conditions: RPMI-8226, 48 h
[13] = system: SK-OV-3
[14] = system: DU-145; conditions: for growth GP: DU-145, 10 μM; for growth GP / CC50: 48 h; for GI50 / TGI: DU-145, 48 h; for CC50: human
[15] = system: Melanoma; conditions: Melanoma subpanel
[16] = system: Renal Cancer; conditions: Renal Cancer subpanel
[17] = system: Breast cancer; conditions: Breast cancer subpanel
[18] = system: panel of 60 cancer cell lines; conditions: for Positive cytostatic effect (ratio of cell lines with GP from 0 to 50 to total number) / Mean growth: 10 μM, 48 h; for Mean growth: one dose; for MG_MID TGI: full panel (last line of Table S2)
[19] = system: OVCAR-3; assay: cells; conditions: Homo sapiens, OVCAR-3, 48 h
[20] = system: OVCAR-4; assay: cells; conditions: Homo sapiens, OVCAR-4, 48 h; for CC50: read-out: LC50, OVCAR-4, 48 h
[21] = system: NCI/ADR-RES; assay: cells; conditions: Homo sapiens, 48 h
[22] = system: 786-0; assay: cells; conditions: Homo sapiens, 786-0, 48 h
[23] = system: PC-3; assay: cells; conditions: Homo sapiens, PC-3, 48 h
[24] = system: Renal Cancer; assay: cells; conditions: Homo sapiens; for GI50: read-out: MG_MID GI50; for CC50: read-out: MG_MID LC50
[25] = system: HL-60(TB); assay: NCI-60 SRB screen
[26] = system: A549/ATCC; assay: NCI-60 SRB screen
[27] = system: HOP-62; assay: NCI-60 SRB screen; conditions: for TGI / GI50: HOP-62, 48 h
[28] = system: OVCAR-5; assay: NCI-60 SRB screen; conditions: for growth GP: OVCAR-5, 10 μM, 48 h; for TGI / GI50: OVCAR-5, 48 h
[29] = system: MDA-MB-468; assay: NCI-60 SRB screen; conditions: MDA-MB-468, 48 h
[30] = system: UO-31
[31] = system: HS 578T; conditions: 48 h
[32] = system: SF-268; assay: cells; conditions: Homo sapiens, SF-268, 48 h

Q: O=C(O)CCCN1C(=O)/C(=C/C=C/c2ccc([N+](=O)[O-])o2)SC1=S [13b, 4-((Z)-5-((E)-3-(5-Nitrofuran-2-yl)allylidene)-4-oxo-2-thioxothiazolidin-3-yl)butanoic acid] was tested. Which IC50 [1] did it give?
A: 2.1 µM

Q: And the IC50 [2]?
A: 3.18 µM

Q: And the IC50 [3]?
A: 3.12 µM

Q: What about the IC50 [4] of the same compound?
A: 3.97 µM

Q: And the IC50 [5]?
A: 4.39 µM

Q: And the IC50 [6]?
A: 0.5 µM

Q: What about the IC50 [7] of the same compound?
A: 3.57 µM

Q: What about the IC50 [8] of the same compound?
A: 1.63 µM

Q: What about the IC50 [9] of the same compound?
A: 8.73 µM

Q: And the IC50 [10]?
A: 3.94 µM

Q: What about the IC50 [11] of the same compound?
A: 8.41 µM

Q: What about the TGI [12] of the same compound?
A: 1.58 µM

Q: What about the GI50 ([13]; SK-OV-3, 48 h) of the same compound?
A: 2.18 µM

Q: What about the TGI ([13]; SK-OV-3, 48 h) of the same compound?
A: 7.44 µM and 13.1 µM

Q: What about the CC50 ([13]; human, 48 h) of the same compound?
A: 39.4 µM

Q: And the “growth GP” value [14]?
A: -99.43%

Q: What about the GI50 [14] of the same compound?
A: 1.15 µM

Q: What about the TGI [14] of the same compound?
A: 2.32 µM and 2.83 µM

Q: What about the CC50 [14] of the same compound?
A: 7.01 µM

Q: And the “MG_MID TGI” value [15]?
A: 1.46 µM

Q: And the “MG_MID TGI” value [16]?
A: 2.60 µM

Q: And the “MG_MID TGI” value [17]?
A: 2.15 µM

Q: What about the “Positive cytostatic effect (ratio of cell lines with GP from 0 to 50 to total number)” value [18] of the same compound?
A: 2/55

Q: What about the Mean growth [18] of the same compound?
A: -76.34%

Q: What about the “MG_MID TGI” value [18] of the same compound?
A: 4.88 µM

Q: What about the GI50 [19] of the same compound?
A: 0.77 µM

Q: And the GI50 [20]?
A: 1.16 µM

Q: What about the CC50 [20] of the same compound?
A: 5.75 µM

Q: And the GI50 [21]?
A: 0.29 µM

Q: And the GI50 [22]?
A: 0.32 µM

Q: What about the GI50 [23] of the same compound?
A: 0.62 µM

Q: What about the GI50 [24] of the same compound?
A: 0.99 µM

Q: And the CC50 [24]?
A: 7.48 µM

Q: And the CC50 ([25]; Homo sapiens, HL-60, 48 h, read-out: LC50, HL-60(TB), 48 h)?
A: > 100 µM

Q: What about the GI50 ([26]; 48 h) of the same compound?
A: 0.78 µM

Q: And the GI50 ([26]; Homo sapiens, A549, 48 h)?
A: 1.36 µM

Q: What about the “growth GP” value ([27]; HOP-62, 10 μM, 48 h) of the same compound?
A: -94.79%

Q: And the TGI [27]?
A: 2.67 µM and 1.90 µM

Q: And the “growth GP” value [28]?
A: -97.64%

Q: And the TGI [28]?
A: 3.32 µM and 2.02 µM

Q: What about the GI50 ([29]; Homo sapiens) of the same compound?
A: 0.33 µM

Q: And the GI50 [29]?
A: 0.17 µM

Q: With O=C(O)CCCCCN1C(=O)/C(=C/C=C/c2ccc([N+](=O)[O-])o2)SC1=S [14b, 6-((Z)-5-((E)-3-(5-nitrofuran-2-yl)allylidene)-4-oxo-2-thioxothiazolidin-3-yl)hexanoic acid] as the compound, how does the IC50 [1] read?
A: 2.57 µM

Q: What about the IC50 [2] of the same compound?
A: 1.8 µM

Q: What about the IC50 [3] of the same compound?
A: 3.3 µM

Q: What about the IC50 [4] of the same compound?
A: 2.11 µM

Q: And the IC50 [5]?
A: 4.52 µM

Q: And the IC50 [6]?
A: 0.28 µM

Q: What about the IC50 [7] of the same compound?
A: 1.53 µM

Q: What about the IC50 [8] of the same compound?
A: 0.85 µM

Q: And the IC50 [9]?
A: 6.61 µM

Q: What about the IC50 [10] of the same compound?
A: 3.13 µM

Q: And the IC50 [11]?
A: 4.11 µM

Q: What about the TGI [12] of the same compound?
A: 1.32 µM

Q: And the GI50 ([13]; SK-OV-3, 48 h)?
A: 2.98 µM

Q: And the GI50 ([30]; UO-31, 48 h)?
A: 0.67 µM

Q: What about the TGI ([30]; UO-31, 48 h) of the same compound?
A: 1.85 µM and 2.05 µM

Q: And the CC50 ([30]; human, 48 h)?
A: 4.89 µM

Q: What about the “growth GP” value [14] of the same compound?
A: -98.04%

Q: And the GI50 [14]?
A: 1.59 µM

Q: What about the TGI [14] of the same compound?
A: 2.87 µM and 3.18 µM

Q: What about the CC50 [14] of the same compound?
A: 6.35 µM

Q: And the GI50 [31]?
A: 0.79 µM

Q: What about the TGI [31] of the same compound?
A: 6.44 µM and 7.76 µM

Q: And the “MG_MID TGI” value [15]?
A: 1.82 µM

Q: And the “MG_MID TGI” value [16]?
A: 4.63 µM

Q: What about the “MG_MID TGI” value [17] of the same compound?
A: 2.61 µM

Q: What about the “Positive cytostatic effect (ratio of cell lines with GP from 0 to 50 to total number)” value [18] of the same compound?
A: 4/55

Q: What about the Mean growth [18] of the same compound?
A: -67.89%

Q: What about the “MG_MID TGI” value [18] of the same compound?
A: 3.58 µM

Q: What about the GI50 [32] of the same compound?
A: 1.26 µM

Q: And the CC50 ([32]; read-out: LC50, SF-268, 48 h)?
A: 5.82 µM

Q: And the GI50 [19]?
A: 1.12 µM

Q: What about the GI50 [20] of the same compound?
A: 1.31 µM

Q: And the CC50 [20]?
A: 5.41 µM

Q: What about the GI50 [21] of the same compound?
A: 0.45 µM

Q: And the GI50 [22]?
A: 0.61 µM

Q: What about the GI50 [24] of the same compound?
A: 1.98 µM

Q: What about the CC50 [24] of the same compound?
A: 10.4 µM

Q: What about the GI50 ([25]; HL-60(TB), 48 h) of the same compound?
A: 1.11 µM

Q: And the TGI ([25]; HL-60(TB), 48 h)?
A: 3.32 µM and 2.81 µM

Q: What about the GI50 ([25]; Homo sapiens, HL-60, 48 h, HL-60(TB), 48 h) of the same compound?
A: 0.75 µM

Q: What about the GI50 ([26]; 48 h) of the same compound?
A: 2.38 µM

Q: What about the GI50 ([26]; Homo sapiens, A549, 48 h) of the same compound?
A: 1.62 µM

Q: And the GI50 [27]?
A: 1.45 µM

Q: And the TGI [27]?
A: 3.05 µM and 3.01 µM

Q: What about the GI50 ([27]; Homo sapiens) of the same compound?
A: 1.44 µM

Q: What about the GI50 ([28]; Homo sapiens) of the same compound?
A: 1.85 µM

Q: What about the “growth GP” value [28] of the same compound?
A: -96.01%

Q: And the GI50 [28]?
A: 1.56 µM

Q: What about the TGI [28] of the same compound?
A: 3.31 µM and 2.97 µM

Q: What about the CC50 ([29]; Homo sapiens, read-out: LC50, MDA-MB-468, 48 h) of the same compound?
A: 5.27 µM
